Patent US20050106305A1, “Beverage compositions comprising monatin and methods of making same” (Cargill, Inc., priority 2003, published 2005)
Read-outs that look alike come from different tables or passages of the source. Where a SMILES comes first, the peptide text is derived from it.

Columns and labels:
[1] = Taste profiling of lemon/lime carbonates and colas; assay type: in vivo; details: HFCS 10%, aspartame 500 ppm, sucralose 200 ppm, blends 30.8 ppm/5.0%; for Average Score: score 1, poor-5, good, sucrose 10%
Protocol: Cola and lemon/lime beverages were prepared using the following formulations and sweetened with sucrose, HFCS (55% fructose), aspartame, sucralose, monatin (racemic mix described in Example 14), monatin/sucrose, or monatin/HFCS. One part of syrup was added to 5.5 parts carbonated water and evaluated.
Assessments were carried out ‘double blind’ by a panel of trained tasters. The sucrose-sweetened product was identified as the control and all other products randomly coded. Panelists were asked to assess the randomly coded sample relative to the control for the following attributes:
Panelists also were asked assign a score (1; poor-5; good) for the quality of the sweetener system. A summary of the comments generated together with the average score awarded is presented in Tables 12 and 13 for lemon/lime carbonates and colas, respectively. […] Blends of monatin/carbohydrate rated higher. In the cola, monatin was similar to aspartame.

[2] = Sensory stability of monatin and aspartame at pH 2.5, 3.0, 4.0 at 40° C.; assay type: physicochemical; details: for Rate constant (k) of sweetness loss / half-life: pseudo-first order assumed; for SEV / Retention of Sweetness: stored 40° C., monatin ~55 ppm, aspartame 400 ppm; for half-life: phosphate/citrate buffer, read-out: Half-life (t½) of sweetness loss (converted)
Protocol: The sensory stability of monatin solutions prepared at pH 2.5, 3.0 and 4.0 and stored at 40° C. was monitored for 100 days. Loss of sweetness from these solutions was compared with the losses of sweetness from aspartame solutions prepared and stored under identical conditions.
The sensory stability of monatin (8% SEV, ˜55 ppm, synthetic blend containing approximately 96% of the 2R,4R/2S, 4S enantiometric pair and 4% of the 2R,4S/2S,4R enantiometric pair) in phosphate/citrate buffers having a pH of 2.5, 3.0, and 4.0 was examined after storage at 40° C. The stability of monatin was compared to that of aspartame (400 ppm) in the same buffers. Three sucrose reference solutions were prepared in the same phosphate/citrate buffers as the monatin and aspartame solutions. All prepared solutions were stored in the dark.
Buffer compositions: pH 2.5 Phosphoric acid (75% solution) 0.127% (w/v) Tri-sodium citrate monohydrate 0.005% (w/v) • pH 3.0 Phosphoric acid (75% solution) 0.092% (w/v) Tri-sodium citrate monohydrate 0.031% (w/v) • pH 4.0 Phosphoric acid (75% solution) 0.071% (w/v) Tri-sodium citrate monohydrate 0.047% (w/v)
The sweetness of each sweetener relative to sucrose was assessed in duplicate by a panel (n=8) of trained sensory evaluators experienced in the sweetness estimation procedure. All samples (in the same buffers) were served in duplicate at a temperature of 22° C.±1° C. Monatin (test) solutions, coded with 3 digit random number codes were presented individually to panelists, in random order. Sucrose reference standards, ranging from 4.0-10.0% (w/v) sucrose, increasing in steps of 0.5% (w/v) sucrose were also provided. Panelists were asked to estimate sweetness by comparing the sweetness of the test solution to the sucrose standards. This was carried out by taking 3 sips of the test solution, followed by a sip of water, followed by 3 sips of sucrose standard followed by a sip of water, etc. Panelists were encouraged to estimate the sweetness to one decimal place, e.g., 6.8, 8.5. A five minute rest period was imposed between evaluating the test solutions. Panelists were also asked to rinse well and eat a cracker to reduce any potential carry over effects.
If a pseudo-first order breakdown reaction is assumed, a plot of logn percentage retention versus time (logn%RTN v. t) allows estimation of the half-life (t½) and rate constant (k) of sweetness loss under any given set of conditions. In so doing, the kinetics of monatin and aspartame sweetness loss may be summarized as follows in Table 25.

[3] = Sensory evaluation of soft drinks (lemon/lime, orangeade, cola); assay type: in vivo; details: Lemon/lime soft drink; aspartame 500 ppm, sucralose 200 ppm, R,R monatin 42 ppm
Protocol: Beverages (cola, lemon-lime and orange) were formulated and sweetened with aspartame, sucralose or R,R monatin. Qualitative evaluation was carried out.
The term “throw” refers to dilution in water. For example, a throw of “1+4” means 1 part concentrate formulation to 4 parts water. Thus, if a concentrate formulation includes 0.021% wt/vol (i.e., 210 ppm) of R,R monatin, for example, a throw of 1+4 makes a diluted beverage containing 42 ppm (210 ppm/5) R,R monatin.
Final ready-to-drink beverages (after throw) contained sweetener concentrations as follows:
Evaluation of these soft drinks was carried out by a panel (n=6) of assessors who evaluated each set of drinks on separate tasting occasions.

[4] = cola, sucrose 10% (control), monatin 80 ppm
[5] = lemon/lime carbonate, sucrose 10% (control), monatin 67 ppm

COC(=O)[C@H](Cc1ccccc1)NC(=O)[C@@H](N)CC(=O)O [Aspartame, aspartame] (H-Asp-Phe-OMe)
Aftertaste [1, 4]: Lingering sweetness
Flavor Profile [1, 4]: Sweet flavor, flatter
Mouthfeel [1, 4]: Thinner mouthfeel
Sweetness Profile [1, 4]: Delayed sweetness
Flavor Profile [1, 5]: Slightly lacking upfront.
Sweetness Profile [1, 5]: Sweetness onset quite
Average Score ([1]; cola, monatin 80 ppm): 3.3
Average Score ([1]; lemon/lime carbonate, monatin 67 ppm): 4.0
Sweetness Retained ([2]; after 100 days storage at pH 2.5 at 40° C.): 11%
Sweetness Retained ([2]; after 100 days storage at pH 3.0 at 40° C.): 31%
Sweetness Retained ([2]; after 100 days storage at pH 4.0 at 40° C.): 58%
Rate constant (k) of sweetness loss ([2]; pH 2.5, 40° C.): 0.013 day⁻¹
SEV ([2]; pH 2.5 buffer, day 0): 7.34 % sucrose
Retention of Sweetness ([2]; pH 2.5 buffer, day 1): 94.0%
SEV ([2]; pH 2.5 buffer, day 1): 6.90 % sucrose
Retention of Sweetness ([2]; pH 2.5 buffer, day 2): 92.6%
SEV ([2]; pH 2.5 buffer, day 2): 6.80 % sucrose
Retention of Sweetness ([2]; pH 2.5 buffer, day 3): 89.9%
SEV ([2]; pH 2.5 buffer, day 3): 6.60 % sucrose
Retention of Sweetness ([2]; pH 2.5 buffer, day 4): 85.7%
SEV ([2]; pH 2.5 buffer, day 4): 6.29 % sucrose
Retention of Sweetness ([2]; pH 2.5 buffer, day 7): 81.9%
SEV ([2]; pH 2.5 buffer, day 7): 6.01 % sucrose
Retention of Sweetness ([2]; pH 2.5 buffer, day 8): 81.5%
SEV ([2]; pH 2.5 buffer, day 8): 5.98 % sucrose
Retention of Sweetness ([2]; pH 2.5 buffer, day 9): 81.3%
SEV ([2]; pH 2.5 buffer, day 9): 5.97 % sucrose
Retention of Sweetness ([2]; pH 2.5 buffer, day 11): 79.8%
SEV ([2]; pH 2.5 buffer, day 11): 5.86 % sucrose
Retention of Sweetness ([2]; pH 2.5 buffer, day 50): 57.1%
SEV ([2]; pH 2.5 buffer, day 50): 4.19 % sucrose
Retention of Sweetness ([2]; pH 2.5 buffer, day 100): 10.9%
SEV ([2]; pH 2.5 buffer, day 100): 0.80 % sucrose
Rate constant (k) of sweetness loss ([2]; pH 3.0, 40° C.): 0.009 day⁻¹
SEV ([2]; pH 3.0 buffer, day 0): 7.15 % sucrose
Retention of Sweetness ([2]; pH 3.0 buffer, day 1): 96.5%
SEV ([2]; pH 3.0 buffer, day 1): 6.90 % sucrose
Retention of Sweetness ([2]; pH 3.0 buffer, day 2): 96.1%
SEV ([2]; pH 3.0 buffer, day 2): 6.87 % sucrose
Retention of Sweetness ([2]; pH 3.0 buffer, day 3): 92.3%
SEV ([2]; pH 3.0 buffer, day 3): 6.60 % sucrose
Retention of Sweetness ([2]; pH 3.0 buffer, day 4): 89.9%
SEV ([2]; pH 3.0 buffer, day 4): 6.43 % sucrose
Retention of Sweetness ([2]; pH 3.0 buffer, day 7): 86.3%
SEV ([2]; pH 3.0 buffer, day 7): 6.17 % sucrose
Retention of Sweetness ([2]; pH 3.0 buffer, day 8): 82.9%
SEV ([2]; pH 3.0 buffer, day 8): 5.93 % sucrose
Retention of Sweetness ([2]; pH 3.0 buffer, day 9): 83.1%
SEV ([2]; pH 3.0 buffer, day 9): 5.94 % sucrose
Retention of Sweetness ([2]; pH 3.0 buffer, day 11): 81.5%
SEV ([2]; pH 3.0 buffer, day 11): 5.83 % sucrose
Retention of Sweetness ([2]; pH 3.0 buffer, day 50): 65.9%
SEV ([2]; pH 3.0 buffer, day 50): 4.71 % sucrose
Retention of Sweetness ([2]; pH 3.0 buffer, day 100): 30.8%
SEV ([2]; pH 3.0 buffer, day 100): 2.20 % sucrose
Rate constant (k) of sweetness loss ([2]; pH 4.0, 40° C.): 0.005 day⁻¹
SEV ([2]; pH 4.0 buffer, day 0): 7.10 % sucrose
Retention of Sweetness ([2]; pH 4.0 buffer, day 3): 95.1%
SEV ([2]; pH 4.0 buffer, day 3): 6.75 % sucrose
Retention of Sweetness ([2]; pH 4.0 buffer, day 8): 87.8%
SEV ([2]; pH 4.0 buffer, day 8): 6.23 % sucrose
Retention of Sweetness ([2]; pH 4.0 buffer, day 11): 84.8%
SEV ([2]; pH 4.0 buffer, day 11): 6.02 % sucrose
Retention of Sweetness ([2]; pH 4.0 buffer, day 17): 81.0%
SEV ([2]; pH 4.0 buffer, day 17): 5.75 % sucrose
Retention of Sweetness ([2]; pH 4.0 buffer, day 24): 82.4%
SEV ([2]; pH 4.0 buffer, day 24): 5.85 % sucrose
Retention of Sweetness ([2]; pH 4.0 buffer, day 50): 74.5%
SEV ([2]; pH 4.0 buffer, day 50): 5.29 % sucrose
Retention of Sweetness ([2]; pH 4.0 buffer, day 100): 57.7%
SEV ([2]; pH 4.0 buffer, day 100): 4.10 % sucrose
half-life ([2]; pH 2.5, 40° C.): 55 days
half-life ([2]; pH 3.0, 40° C.): 75 days
half-life ([2]; pH 4.0, 40° C.): 140 days
Comments (sensory evaluation) [3]: Balanced sweetness/acidity profile. Very
